IC70, sub-G0 fraction and G1 arrest data for 1 compound are collected here from patent US12195804B2, “Treatment of squamous cell carcinoma” (Board of Regents, The University of Texas System, priority 2018, dated 2025).

Assay [1] deals with PJ34 cells. Put plainly: CellTiter-Glo viability, PJ34 parental and NOTCH1 KO. As to conditions: 72 hours. In kind it is cell-based, human. As for the experimental part: FIGS. 9A-9D: NOTCH1 knockout (KO) sensitizes two NOTCH1^WT head and neck squamous cell carcinoma (HNSCC) cell lines to PI3K/mTOR pathway inhibition in vitro. Two NOTCH1^WT HNSCC cell lines (PJ34 and UMSCC49 [UM49]), parental cell lines, and NOTCH1 KO cell lines were treated with PI3K/mTOR pathway inhibitors. FIG. 9A. The CellTiter-Glo assay was used to assess the viability of cells treated for 72 hours with the indicated concentrations of GSK2126458 (GSK212). FIG. 9B. Western blot analysis of apoptosis markers, NOTCH1, and NOTCH intracellular domain (NICD) was performed after treatment with the indicated concentrations of GSK212 for 48 hours. FIG. 9C. Apoptosis in cells treated with 50 nM GSK212 or 200 nM BEZ235 for 48 hours was measured using an Annexin V/propidium iodide assay. Values are the means±standard deviations of three independent experiments. *p<0.05, unpaired two-tailed Student t-test. FIG. 9D. […] Colony areas as percentages of the control were measured using ImageJ. […]
Cell viability assay. […] Inhibitory concentration (ICs) and area under the curve (AUC) values were calculated using the drexplorer R package with a best-fit dose-response model (Zumsteg et al., 2016). The combination indices were calculated using the Chou-Talalay method (Cal et al., 2017) in CalcuSyn (Biosoft, Cambridge, UK). […]
For orientation: Cellular ATP, detected with luciferase, serves as a proxy for viable cell number.

The test system of assay [2] is HNSCC cell lines. Kind of assay: Cell cycle analysis (BrdU/7-AAD flow cytometry). Format: cell-based, human. As to conditions: 50 nM. The method, then: FIGS. 16A-16C: Effects of PI3K/mTOR signaling inhibition on the survival of NOTCH1MUT and NOTCH1WT head and neck squamous cell carcinoma (HNSCC) cell lines in vitro. FIG. 16A. The Annexin V/propidium iodide assay was used to assess apoptosis in HNSCC cells that had the indicated NOTCH1 and PIK3CA mutations and were treated with 500 nM BAY806946. Values are the means {plus minus} standard deviations of three independent experiments. […], unpaired two-tailed Student t-test. FIG. 16B. NOTCH1MUT lines (red text) and NOTCH1WT lines (black text) were treated with increasing concentrations of BAY806946 for 3 hours, and then Western blotting was used to assess levels of p-AKT (S473). FIG. 16C. NOTCH1WT lines (black text), NOTCH1MUT lines (red text), and PIK3CAMUT lines (blue text) were treated with 50 nM GSK2126458 (GSK212) and then pulse-labeled with BrDU and counterstained with 7-AAD for flow cytometry.
Apoptosis and cell cycle assays. […] Data were acquired with a three-laser, 10-color Gallios flow cytometer (Beckman Coulter, Brea, CA) and analyzed using Kaluza software (Beckman Coulter, Brea, CA). […]
(In general: In flow cytometry, cells or beads pass a laser one at a time.)

As for `COc1ncc(-c2ccc3nccc(-c4ccnnc4)c3c2)cc1NS(=O)(=O)c1ccc(F)cc1F` [GSK2126458], the values for the IC70 in assay [1] (PJ34 NOTCH1 KO) and in assay [1] (PJ34 parental) were 24 nM and 100 nM, respectively. Besides, the sub-G0 fraction result in assay [2] was “increased the sub-G0 fraction in only NOTCH1^MUT lines”. Besides, the G1 arrest result in assay [2] (all cell lines) is given as “induced G1 arrest in all cell lines”.
